According to US9260408B2, “Dihydroquinoline-2-one derivatives” (Hoffmann-La Roche Inc., priority 2011, dated 2016):
Structures can show the parent of a compound that is named as a salt.

What was measured:
human CYP11B2 = biological target: T1, human CYP11B2 (Homo sapiens, UniProt P19099); assay: G-402 cellular enzyme assay, human CYP11B2 (aldosterone release, HTRF); assay type: cell-based; conditions: G-402 cells expressing human CYP11B2; 1 μM Deoxycorticosterone
T1 construct: expressed in transfected cells
T1 sequence (P19099 25-503): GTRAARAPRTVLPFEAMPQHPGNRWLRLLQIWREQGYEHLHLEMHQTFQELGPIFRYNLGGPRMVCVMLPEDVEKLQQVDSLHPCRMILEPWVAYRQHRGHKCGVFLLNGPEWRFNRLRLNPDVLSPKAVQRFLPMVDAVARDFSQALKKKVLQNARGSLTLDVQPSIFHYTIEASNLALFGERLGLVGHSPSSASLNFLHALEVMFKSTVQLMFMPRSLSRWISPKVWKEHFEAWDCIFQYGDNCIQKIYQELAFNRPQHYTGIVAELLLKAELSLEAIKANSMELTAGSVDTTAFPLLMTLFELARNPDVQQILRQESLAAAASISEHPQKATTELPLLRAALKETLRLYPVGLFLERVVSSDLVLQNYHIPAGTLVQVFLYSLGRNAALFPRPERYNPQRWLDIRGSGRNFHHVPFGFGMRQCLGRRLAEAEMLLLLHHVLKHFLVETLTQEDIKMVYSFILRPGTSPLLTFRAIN
Source text: (§1) Herein we identified the use of the G-402 cell line as a host cell to ectopically express (transiently or stably) enzymes of the CYP11 family. Specifically we developed stable G-402 cells expressing ectopically human CYP11B1, human CYP11B2, human CYP11A1, cynomolgus CYP11B1 or cynomolgus CYP11B2 enzyme activity. Importantly the identified cell line G-402 expresses co-factors (adrenodoxin and adrenodoxin reductase) important for the activity of the CYP11 family and no relevant enzyme activity of the CYP11 family (in comparison to H295R cells) was detected in these cells. Therefore the G-402 cell line is uniquely suited as a host cell for the ectopic expression of enzymes from the CYP11 family.
(§2) G-402 cells can be obtained from ATCC(CRL-1440) and were originally derived from a renal leiomyoblastoma.
(§3) The expression plasmids contains the ORF for either human/cyno CYP11B1 or CYP11B2 under the control of a suitable promoter (CMV-promoter) and a suitable resistance marker (neomycin). Using standard techniques the expression plasmid is transfected into G-402 cells and these cells are then selected for expressing the given resistance markers. Individual cell-clones are then selected and assessed for displaying the desired enzymatic activity using 11-Deoxycorticosterone (Cyp11B2) or 11-Deoxycortisol (Cyp11B1) as a substrate.
(§4) G-402 cells expressing CYP11 constructs were established as described above and maintained in McCoy's 5a Medium Modified, ATCC Catalog No. 30-2007 containing 10% FCS and 400 μg/ml G418 (Geneticin) at 37° C. under an atmosphere of 5% CO2/95% air. Cellular enzyme assays were performed in DMEM/F12 medium containing 2.5% charcoal treated FCS and appropriate concentration of substrate (0.3-10 uM 11-Deoxycorticosterone, 11-Deoxycortisol or Corticosterone). For assaying enzymatic activity, cells were plated onto 96 well plates and incubated for 16 h. An aliquot of the supernatant is then transferred and analyzed for the concentration of the expected product (Aldosterone for CYP11B2; Cortisol for CYP11B1). The concentrations of these steroids can be determined using HTRF assays from CisBio analyzing either Aldosterone or Cortisol.
(§5) Inhibition of the release of produced steroids can be used as a measure of the respective enzyme inhibition by test compounds added during the cellular enzyme assay. The dose dependent inhibition of enzymatic activity by a compound is calculated by means of plotting added inhibitor concentrations (x-axes) vs. measured steroid/product level (y-axes). The inhibition is then calculated by fitting the following 4-parameter sigmoidal function (Morgan-Mercer-Flodin (MMF) model) to the raw data points using the least squares method:
(§6) [formula] wherein, A is the maximum y value, B is the EC50 factor determined using XLFit, C is the minimum y value and D is the slope value.
(§7) EC50 values for compounds claimed herein were tested with the G402-based assay system described. Cyp11B2 enzyme activity was tested in presence of 1 μM Deoxycorticosterone and variable amounts of inhibitors; Cyp11B1 enzyme activity was tested in presence of 1 μM Deoxycortisol and variable amounts of inhibitors.

human CYP11B1 = biological target: T2, human CYP11B1 (Homo sapiens, UniProt P15538); assay: G-402 cellular enzyme assay, human CYP11B1 (cortisol release, HTRF); assay type: cell-based; conditions: G-402 cells expressing human CYP11B1; 1 μM Deoxycortisol
T2 construct: expressed in transfected cells
T2 sequence (P15538 25-503): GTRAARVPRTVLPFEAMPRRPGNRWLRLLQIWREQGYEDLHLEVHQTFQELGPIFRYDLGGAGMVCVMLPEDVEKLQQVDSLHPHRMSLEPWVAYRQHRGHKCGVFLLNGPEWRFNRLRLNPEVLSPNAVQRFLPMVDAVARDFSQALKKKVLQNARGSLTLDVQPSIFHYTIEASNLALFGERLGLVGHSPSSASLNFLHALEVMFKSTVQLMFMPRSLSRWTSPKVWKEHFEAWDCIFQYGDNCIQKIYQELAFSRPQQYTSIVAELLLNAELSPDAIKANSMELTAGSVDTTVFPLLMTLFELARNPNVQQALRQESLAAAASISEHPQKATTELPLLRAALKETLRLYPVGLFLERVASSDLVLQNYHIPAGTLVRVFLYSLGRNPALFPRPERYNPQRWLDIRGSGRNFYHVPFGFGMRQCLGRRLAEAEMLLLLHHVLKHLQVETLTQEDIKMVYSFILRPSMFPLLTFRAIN
Source text: as §1, §2, §3, §4, §5, §6, §7

| EC50 (human CYP11B2) [nM] | EC50 (human CYP11B1) [nM] | SMILES |
| --- | --- | --- |
| 33 | 1230 | CCS(=O)(=O)NC(C)c1cncc(-c2ccc3c(c2)CCC(=O)N3C)c1 (single isomer, unassigned) [Example 174, Ethanesulfonic acid {(S or R)-1-[5-(1-methyl-2-oxo-1,2,3,4-tetrahydro-quinolin-6-yl)-pyridin-3-yl]-ethyl}-amide] |
| 7 | 442 | CCS(=O)(=O)NC(C)c1cncc(-c2cc3c(cc2F)N(C)C(=O)CC3)c1 (single isomer, unassigned) [Example 190, Ethanesulfonic acid {(R or S)-1-[5-(7-fluoro-1-methyl-2-oxo-1,2,3,4-tetrahydro-quinolin-6-yl)-pyridin-3-yl]-ethyl}-amide] |
| 10 | 777 | CCS(=O)(=O)NC(C)c1cncc(-c2cc3c(cc2F)N(C)C(=O)CC3)c1 (single isomer, unassigned) [Example 191, Ethanesulfonic acid {(S or R)-1-[5-(7-fluoro-1-methyl-2-oxo-1,2,3,4-tetrahydro-quinolin-6-yl)-pyridin-3-yl]-ethyl}-amide] |
| 1 | 7 | CC(NC(=O)c1ncccc1Cl)c1cncc(-c2ccc3c(c2)CCC(=O)N3C)c1 (single isomer, unassigned) [Example 230, 3-Chloro-pyridine-2-carboxylic acid {(R or S)-1-[5-(1-methyl-2-oxo-1,2,3,4-tetrahydro-quinolin-6-yl)-pyridin-3-yl]-ethyl}-amide] |
| 21 | 401 | Cc1c(-c2ccc3c(c2)CCC(=O)N3C)cncc1C(C)N[S@+]([O-])C(C)(C)C (single isomer, unassigned) [Example 239, (R)-2-Methyl-propane-2-sulfinic acid {(R or S)-1-[4-methyl-5-(1-methyl-2-oxo-1,2,3,4-tetrahydro-quinolin-6-yl)-pyridin-3-yl]-ethyl}-amide] |
| 250 | 15000 | Cc1c(-c2ccc3c(c2)CCC(=O)N3C)cncc1C(C)N (single isomer, unassigned) [Example 240, 6-[5-((R or S)-1-Amino-ethyl)-4-methyl-pyridin-3-yl]-1-methyl-3,4-dihydro-1H-quinolin-2-one hydrochloride] |
| 7 | 251 | Cc1c(-c2ccc3c(c2)CCC(=O)N3C)cncc1C(C)NC(=O)c1ncccc1Cl (single isomer, unassigned) [Example 241, 3-Chloro-pyridine-2-carboxylic acid {(R or S)-1-[4-methyl-5-(1-methyl-2-oxo-1,2,3,4-tetrahydro-quinolin-6-yl)-pyridin-3-yl]-ethyl}-amide] |
| 100 | 3690 | Cc1noc(C)c1C(=O)NC(C)c1cncc(-c2ccc3c(c2)CCC(=O)N3C)c1C (single isomer, unassigned) [Example 242, 3,5-Dimethyl-isoxazole-4-carboxylic acid {(R or S)-1-[4-methyl-5-(1-methyl-2-oxo-1,2,3,4-tetrahydro-quinolin-6-yl)-pyridin-3-yl]-ethyl}-amide] |
| 14 | 261 | CC(N[S@+]([O-])C(C)(C)C)c1cncc(-c2ccc3c(c2)CCC(=O)N3C)c1Cl (single isomer, unassigned) [Example 249, (R)-2-Methyl-propane-2-sulfinic acid {(R or S)-1-[4-chloro-5-(1-methyl-2-oxo-1,2,3,4-tetrahydro-quinolin-6-yl)-pyridin-3-yl]-ethyl}-amide] |
| 35 | 1250 | CC(N)c1cncc(-c2ccc3c(c2)CCC(=O)N3C)c1Cl (single isomer, unassigned) [Example 250, 6-[5-((R or S)-1-Amino-ethyl)-4-chloro-pyridin-3-yl]-1-methyl-3,4-dihydro-1H-quinolin-2-one hydrochloride] |
| 1 | 6 | CC(NC(=O)c1ncccc1Cl)c1cncc(-c2ccc3c(c2)CCC(=O)N3C)c1Cl (single isomer, unassigned) [Example 251, 3-Chloro-pyridine-2-carboxylic acid {(R or S)-1-[4-chloro-5-(1-methyl-2-oxo-1,2,3,4-tetrahydro-quinolin-6-yl)-pyridin-3-yl]-ethyl}-amide] |
| 26 | 468 | Cc1c(-c2cc3c(cc2F)N(C)C(=O)CC3)cncc1C(C)N[S@+]([O-])C(C)(C)C (single isomer, unassigned) [Example 252, (R)-2-Methyl-propane-2-sulfinic acid {(R or S)-1-[5-(7-fluoro-1-methyl-2-oxo-1,2,3,4-tetrahydro-quinolin-6-yl)-4-methyl-pyridin-3-yl]-ethyl}-amide] |
| 193 | 4480 | Cc1c(-c2cc3c(cc2F)N(C)C(=O)CC3)cncc1C(C)N (single isomer, unassigned) [Example 253, 6-[5-((R or S)-1-Amino-ethyl)-4-methyl-pyridin-3-yl]-7-fluoro-1-methyl-3,4-dihydro-1H-quinolin-2-one hydrochloride] |
| 22 | 679 | Cc1noc(C)c1C(=O)NC(C)c1cncc(-c2ccc3c(c2)CCC(=O)N3C)c1Cl (single isomer, unassigned) [Example 257, 3,5-Dimethyl-isoxazole-4-carboxylic acid {(R or S)-1-[4-chloro-5-(1-methyl-2-oxo-1,2,3,4-tetrahydro-quinolin-6-yl)-pyridin-3-yl]-ethyl}-amide] |
| 13 | 291 | Cc1c(-c2cc3c(cc2F)N(C)C(=O)CC3)cncc1C(C)NC(=O)c1ncccc1Cl (single isomer, unassigned) [Example 258, 3-Chloro-pyridine-2-carboxylic acid {(R or S)-1-[5-(7-fluoro-1-methyl-2-oxo-1,2,3,4-tetrahydro-quinolin-6-yl)-4-methyl-pyridin-3-yl]ethyl}-amide] |
| 62 | 1220 | CCC(=O)NC(C)c1cncc(-c2ccc3c(c2)CCC(=O)N3C)c1Cl (single isomer, unassigned) [Example 261, N-{(R or S)-1-[4-Chloro-5-(1-methyl-2-oxo-1,2,3,4-tetrahydro-quinolin-6-yl)-pyridin-3-yl]-ethyl}-propionamide] |
| 24 | 2920 | CCC(=O)NC(C)c1cncc(-c2cc3c(cc2F)N(C)C(=O)CC3)c1C (single isomer, unassigned) [Example 264, N-{(R or S)-1-[5-(7-Fluoro-1-methyl-2-oxo-1,2,3,4-tetrahydro-quinolin-6-yl)-4-methyl-pyridin-3-yl]ethyl}-propionamide] |
